Data as given in patent US20260285801A1, “LIPID NANOPARTICLE FOR TARGETED DELIVERY OF THERAPEUTIC PAYLOADS” (Trustees of Tufts College, priority 2023, published 2026).

Legend:
[1] = test system: female adult BALB/c mice; assay: IV injection of Luc mRNA/LNP, whole body bioluminescence by IVIS imaging; format: in vivo; conditions: single i.v., 5 μg mRNA, 6 hours post injection; for delivery of the luciferase mRNA to the liver in vivo (luciferase intensity, IVIS): LNPs of L88, L854, L855 compared, FIGS. 4A-5B
Method: All animal experiments were conducted in accordance with the approved animal protocols. LNPs were formulated with lipids and mRNA encoding Luciferase (Luc) based on TABLE 3. LNPs comprising 5 μg mRNA and 50 μg active lipids (e.g., ionizable lipids) were injected intravenously (i.v.) to female adult BALB/c mice (6-8 wk. old). Six hours post injection, 100 μL of luciferin K salt (15 mg/mL in PBS) was administered to the mice through intraperitoneal injections. The mice were then imaged using the In Vivo Imaging System (IVIS) and the total flux of areas of interest was quantified. FIGS. 2A-2G illustrate representative IVIS data using the LNPs formulated with active lipids from TABLE 4. […] FIGS. 4A-7B show further analysis of the IVIS results. In FIGS. 4A-4B and FIGS. 5A-5B, the lipid nanoparticles were formulated with luciferase mRNA and lipids L88, L854, and L855, respectively. The experiment was conducted in duplicates. […] Existing lipid formulations in the industry were used as controls in the experiment. For example, lipids provided herein were compared to ALC-0315 (Pfizer) and SM-102 (Moderna).

[2] = LNP size and polydispersity index by dynamic light scattering (Zetasizer Nano ZS); format: physicochemical; conditions: LNP with mRNA payload formulated with the lipid; active lipid/Cholesterol/DOPC/DMG-PEG 16.8/4.0/2.0/1.0; Lipids:mRNA 25:1; PBS pH 7.4, 25° C.
Method: (§1) RNA working solutions (0.134 mg/ml) were prepared in 25 mM sodium acetate buffer using DNase/RNase-free distilled water. Lipid stock solutions (10 mg/mL) were freshly prepared with active lipids or helper lipids (e.g., cholesterol, DOPC or DSPC, or ALC-0159) in ethanol. Reagents were mixed by vortexing and sonicating until the lipids were completely dissolved. A lipid mixture was first prepared by combining the active lipids (e.g., ionizable lipids of the present disclosure) and helper lipids into one vial and mixing thoroughly. Lipid nanoparticles were then formed by mixing the RNA working solution (0.134 mg/ml) and the lipid mixture at 3:1 volume ratio, either manually (for smaller scale) or by Precision Igniter microfluidic device. The formulation solution was transferred into a 300 kDa MWCO Float-A-Lyzer G2 Dialysis Device and dialyzed against at least 1000-folds volume of 50 mM Tris buffer overnight at 4° C. The LNP solution was sterilized with a 0.22 μm filter.
(§2) For LNP characterization, size and polydispersity index (PDI) were determined by dynamic light scattering using a Zetasizer Nano ZS. 10 μL of LNP suspension was transferred to a low-volume cuvette containing 900 μL of Ca^2+ and Mg^2+ free PBS at pH 7.4. Refractive index was set to […] and temperature was set to 25° C. Encapsulation efficiency (EE %) was measured using a fluorescence plate-based assay employing the Ribogreen reagent (Invitrogen) as per PNI Ribogreen assay protocol 16. This assay measures the quantity of mRNA in samples with intact LNPs to determine the quantity of unencapsulated RNA as well as in LNP samples disrupted by triton X-100 to measure the total RNA. EE % is calculated as the difference between the total RNA and the unencapsulated RNA divided by the total RNA.

[3] = Encapsulation efficiency and mRNA quantity by Ribogreen fluorescence plate assay; format: physicochemical; conditions: LNP with mRNA payload formulated with the lipid, 16.8/4.0/2.0/1.0, Lipids:mRNA 25:1; for EE %: (total RNA - unencapsulated RNA)/total RNA
Method: as §1, §2

Question: For `CCCCCCC(CCCC)COC(=O)CCOC(=O)CCN(CCC(=O)OCCC(=O)OCC(CCCC)CCCCCC)CCN(C)CCN(CCC(=O)OCCC(=O)OCC(CCCC)CCCCCC)CCC(=O)OCCC(=O)OCC(CCCC)CCCCCC` (stereo not shown) [Lipid L0855], which “delivery of the luciferase mRNA to the liver in vivo (luciferase intensity, IVIS)” value [1] is on record?
Answer: The value was “more efficient delivery of the luciferase mRNA to the liver”.

Question: What about the “luciferase mRNA delivery compared to SM-102” value ([1]; FIGS. 7A-7B) of the same molecule?
Answer: Its value is “more luciferase mRNA delivery than SM-102”.

Question: What about the PDI [2] of the same molecule?
Answer: Its PDI is 0.125.

Question: And the “Size (nm)” value [2]?
Answer: The value was 99.86 nm.

Question: What about the “[mRNA] Ug/ml” value [3] of the same molecule?
Answer: Its value is 78.9 Ug/ml.

Question: And the EE % [3]?
Answer: The EE % was 95.1%.

Question: What does the source list for `CCCCCCC(CCCC)COC(=O)CCOC(=O)CCN(CCCN(C)CCCN(CCC(=O)OCCC(=O)OCC(CCCC)CCCCCC)CCC(=O)OCCC(=O)OCC(CCCC)CCCCCC)CCC(=O)OCCC(=O)OCC(CCCC)CCCCCC` (stereo not shown) [Lipid L0854]?
Answer: delivery of the luciferase mRNA to the liver in vivo (luciferase intensity, IVIS) [1]: more efficient delivery of the luciferase mRNA to the liver; luciferase mRNA delivery to the liver compared to ALC-0315 ([1]; FIGS. 6A-6B): more luciferase mRNA delivery to the liver than ALC-0315; PDI [2]: 0.098; Size (nm) [2]: 120.3 nm; [mRNA] Ug/ml [3]: 77.7 Ug/ml; EE % [3]: 94.6%

Question: With `CC/C=C\CCCCOC(=O)CCN(CCCN(C)CCCN(CCC(=O)OCCCC/C=C\CC)CCC(=O)OCCOC(=O)OCC(CCCC)CCCCCC)CCC(=O)OCCCC/C=C\CC` (stereo not shown) [Lipid L0829] as the molecule, how does the PDI [2] read?
Answer: The PDI was 0.13.

Question: And the “Size (nm)” value [2]?
Answer: The value was 98.3 nm.

Question: And the “[mRNA] Ug/ml” value [3]?
Answer: The value was 78 Ug/ml.

Question: And the EE % [3]?
Answer: Its EE % is 92%.

Question: With `CCCCCCC(CCCC)COC(=O)NCCNC(=O)CCN(CCCN(C)CCCN(CCC(=O)OCCNC(=O)OCC(CCCC)CCCCCC)CCC(=O)OCCNC(=O)OCC(CCCC)CCCCCC)CCC(=O)NCCNC(=O)OCC(CCCC)CCCCCC` (stereo not shown) [Lipid L0744] as the molecule, how does the PDI [2] read?
Answer: Its PDI is 0.118.

Question: What about the “Size (nm)” value [2] of the same molecule?
Answer: Its value is 97 nm.

Question: What about the “[mRNA] Ug/ml” value [3] of the same molecule?
Answer: Its value is 74 Ug/ml.

Question: What about the EE % [3] of the same molecule?
Answer: The EE % was 95.5%.

Question: With `CCCCCCC(CCCC)COC(=O)OCCOC(=O)CCN(CCCN(CCCNC(=S)NC)CCCN(CCC(=O)OCCOC(=O)OCC(CCCC)CCCCCC)CCC(=O)OCCOC(=O)OCC(CCCC)CCCCCC)CCC(=O)OCCOC(=O)OCC(CCCC)CCCCCC` (stereo not shown) [Lipid L0773] as the molecule, how does the PDI [2] read?
Answer: Its PDI is 0.089.

Question: What about the “Size (nm)” value [2] of the same molecule?
Answer: Its value is 135.3 nm.

Question: What about the “[mRNA] Ug/ml” value [3] of the same molecule?
Answer: Its value is 95.3 Ug/ml.

Question: And the EE % [3]?
Answer: The EE % was 98.7%.

Question: Which PDI [2] does the source give for `CCCCCCC(CCCC)COC(=O)OCCOC(=O)CCN(CCCN(CCO)CCCN(CCC(=O)OCCOC(=O)OCC(CCCC)CCCCCC)CCC(=O)OCCOC(=O)OCC(CCCC)CCCCCC)CCC(=O)OCCOC(=O)OCC(CCCC)CCCCCC` (stereo not shown) [Lipid L0665] here?
Answer: Its PDI is 0.16.

Question: What about the “Size (nm)” value [2] of the same molecule?
Answer: The value was 107.6 nm.

Question: And the “[mRNA] Ug/ml” value [3]?
Answer: Its value is 65.8 Ug/ml.

Question: And the EE % [3]?
Answer: Its EE % is 97.2%.
